{"source": "patent US11077078B2", "about": "“Compositions and methods for the treatment of cancer” (KoDiscovery, LLC, priority 2006, dated 2021)", "key": {"liver cancer cells": {"tested_on": "liver cancer cells", "assay": "Photographs of liver cancer cells treated with 3BP (FIG. 2)", "assay_type": "cell-based", "excerpt": "The presently disclosed cellular energy inhibitors, shown as 3-bromopyruvate (3BP) (a lactic acid analog) in FIG. 1, are small chemicals and can mimic the lactic acid chemical structure; depicted as a small diamond in FIG. 1. Therefore, cellular energy inhibitors disguised as lactic acid can “trick” the cancer cells and enter like a Trojan horse (FIG. 1). The inhibitors have little effect on normal cells as these contain very few lactic acid transporters. Because of the present cellular energy inhibitors' highly reactive nature, it can destroy the two energy production factories (FIG. 1; one diamond above the hexokinase (HK), shown as 3BP is destroying one energy production factory, i.e., glycolysis, and another red diamond inside the mitochondrion means that 3BP is destroying also this energy production factory). As a result, the cellular energy (ATP) can be depleted very rapidly by cellular energy inhibitors; 3BP in FIG. 1, attack the two factories at the same time causing the cancer cells to rapidly explode (cell membrane rupturing). […] Here, the healthy cancer cells are round and iridescent (left picture)."}, "metastatic lung tumors": {"tested_on": "metastatic lung tumors", "assay": "Metastatic lung cancer study in rabbits, IP port delivery (FIG. 4)", "details": "dissected lungs"}, "[1]": {"tested_on": "Hepatocellular carcinoma cells", "assay": "Rat hepatocellular carcinoma study: cancer cell viability vs μM of anti-cancer agents (FIG. 3)", "details": "23 hour period; 3-bromopyruvate with as little as 20 μM"}, "[2]": {"tested_on": "human prostate cancer cells", "assay": "Cell viability/proliferation of human prostate cancer cells vs various anti-cancer agents (FIG. 9)", "assay_type": "cell-based", "excerpt": "The anti-cancer compositions described herein can be used to treat any cancer having increased glycolysis; the metabolic phenotype referred to as the “Warburg Effect”, as described above. In another embodiment, the anti-cancer compositions can be used to treat any cancer that can be detected by Positron Emission Tomography (PET), which detects this metabolic phenotype. For example, FIG. 5 illustrates a reaction scheme for PET scanning. Human cancer cell lines that the present anti-cancer composition has shown to be effective against include liver, cervical, ovarian, lung, breast, colon, neuroblastoma, medulloblastoma, prostate, skin, pancreatic, childhood fibrolamellar hepatocellular carcinoma (FHCC), hepatocellular carcinoma (HCC), non small cell lung cancer. For example, FIG. 9 depicts a bar graph showing various cancer drugs effects on human prostate cancer cells. […] As such, the present cancers that can be treated with the present anti-cancer compositions can be selected from the group consisting of liver, cervical, ovarian, lung, breast, colon, neuroblastoma, medulloblastoma, prostate, skin, pancreatic, childhood fibrolamellar hepatocellular carcinoma (FHCC), hepatocellular carcinoma (HCC), non small cell lung cancer. […]"}}}
{"smiles": "O=C(O)C(=O)CBr", "note": "[3-Bromopyruvate, 3-bromopyruvate]", "values": [{"measurement": "cell morphology / death after treatment", "setting": "liver cancer cells", "value": "the cell membranes rupture"}, {"measurement": "metastatic lung cancer after treatment", "setting": "metastatic lung tumors", "value": "no metastatic lung cancer"}, {"measurement": "cell viability", "setting": "[1]", "value": "approx. 5%"}, {"measurement": "stopping cancer cell proliferation vs other known chemo-agents", "setting": "[2]", "value": "better than other known chemo-agents in stopping cancer cell proliferation"}]}
